Publication PMC9186412, “Rational Framework for the Design of Trp- and Arg-Rich Peptide Antibiotics Against Multidrug-Resistant Bacteria” (Frontiers in Microbiology, 2022)
Converted amounts (≈) assume the structure as drawn. Read-outs that look alike come from different tables or passages of the source. One block for each compound: values may come before it.

Legend:
Enterobacter spp = assay: microbe, parasite or virus in culture; type: cell-based, Enterobacter spp (aerogenes, cloacae); conditions: Enterobacter, 18 h, UPMC, MHB2, 18 h, 37°C
Description: (§1) Bacterial clinical isolates, used for initial screening and in previous studies ([Deslouches et al., 2013]; [Lin et al., 2018]), were anonymously provided by the clinical microbiology laboratory of the University of Pittsburgh medical Center. The panel used for secondary screening was from [CDC (2013)] (Supplementary Table 3), with resistance profiles data. Bacteria are stored in lock-secured –80°C freezer and typically retrieved by obtaining single colonies on agar plates prior for subsequent liquid broth cultures. Suspensions of test bacteria were prepared from log phase of growth by diluting overnight cultures at 1:100 with fresh cation-adjusted MHB (MHB2, Millipore Sigma, United States) and incubating for additional 3–4 h. Bacteria were spun at 3,000 × g for 10 min and the pellet resuspended in test condition media (Millipore Sigma, United States) to determine bacterial turbidity using a Den-1B densitometer (Grant Instruments, United States) at 0.5 McFarland (unit of bacterial density) corresponding to […].
(§2) To examine antibacterial activity, we used minor modifications of a standard growth inhibition assay endorsed by the Clinical and Laboratory Standards Institute (CLSI), as previously described ([Deslouches et al., 2013]). Bacteria were incubated with each of the indicated peptides in MHB2. The bacterial cells were kept in an incubator for 18 h at 37°C, which is linked to a robotic system that feeds a plate reader every hour with one of 8 × 96-well plates. This set-up allows the collection of growth kinetic data at A 570 (absorbance at 570 nm) to examine growth inhibition in real time (BioTek Instruments, United States). […] The assays are typically repeated a second time. If the MIC is different, a third experimental trial is performed to confirm the MIC. To assess bactericidal properties of the peptide, the assay was modified by using 15% fetal bovine serum (FBS, for a more physiologically relevant test condition) mixed with 25% MHB2 and 60% PBS. Bacterial cells (colony forming unit/mL or CFU/mL) were enumerated after incubating treated bacteria for 3 h and plating serially diluted samples on broth agar medium at 37°C overnight. Minimum bactericidal concentration (MBC) was determined as the peptide concentration at which complete bacterial killing was observed. […] Data were analyzed using GraphPad Prism software.

A. baumannii = assay: microbe, parasite or virus in culture; type: cell-based, Acinetobacter baumannii; conditions: Acinetobacter baumannii, 18 h, MHB2, 18 h, 37°C
Description: as §1, §2

E. coli = assay: microbe, parasite or virus in culture; type: cell-based, Escherichia coli; conditions: Escherichia coli, 18 h, MHB2, 18 h, 37°C
Description: as §1, §2

K. pneumoniae = assay: microbe, parasite or virus in culture; type: cell-based, Klebsiella pneumoniae; conditions: Klebsiella pneumoniae, 18 h, MHB2, 18 h, 37°C
Description: as §1, §2

CDC AR isolates = tested on: CDC AR isolates; set-up: key: S (green), susceptible; I (blue), intermediate; R (red), resistant; conditions: data provided by the CDC, ref CDC, cited from earlier work
Excerpt: Supplement Table_3.XLSX, sheet "CDC AR isolates profiles" | column: G(-) strains

E. Faecium = assay: microbe, parasite or virus in culture; type: cell-based, Enterococcus Facium; conditions: Enterococcus faecium, 18 h, MHB2, 18 h, 37°C
Description: as §1, §2

S. aureus = assay: microbe, parasite or virus in culture; type: cell-based; conditions: Staphylococcus aureus, 18 h, MHB2, 18 h, 37°C
Description: as §1, §2

[1] = Enterobacter cloacae E62, CDC AR isolate
[2] = Enterobacter cloacae E544, CDC AR isolate
[3] = Enterobacter cloacae E545, CDC AR isolate
[4] = Enterobacter cloacae E546, CDC AR isolate
[5] = Escherichia coli EC541, CDC AR isolate
[6] = Escherichia coli EC543, CDC AR isolate
[7] = Escherichia coli EC544, CDC AR isolate
[8] = Escherichia coli EC549, CDC AR isolate
[9] = Klebsiella pneumoniae KP542, CDC AR isolate
[10] = Klebsiella pneumoniae KP548, CDC AR isolate
[11] = Klebsiella pneumoniae KP550, CDC AR isolate
[12] = Klebsiella pneumoniae KP552, CDC AR isolate

Compound: H-RWVRRVRRVWRRVRRVVRRW-OH [E7]
- % RBC lysis: 5%

- MIC (Enterobacter spp; strain EA518 (aerogenes)): > 16 µM
- MIC (Enterobacter spp; strain EA596 (aerogenes)): 16 µM (≈ 6.14 µg/mL)
- MIC (Enterobacter spp; strain EC470 (cloacae)): > 16 µM
- MIC (Enterobacter spp; strain EC560 (cloacae)): 16 µM (≈ 6.14 µg/mL)
- MIC (A. baumannii; strain AB-A2, UPMC clinical strain, A570, confirmed by 2nd or 3rd trial): 4 µM (≈ 1.53 µg/mL)
- MIC (A. baumannii; strain AB-A3, UPMC): > 16 µM
- MIC (A. baumannii; strain AB-F8, UPMC): 8 µM (≈ 3.07 µg/mL)
- MIC (A. baumannii; strain AB-F9, UPMC): 8 µM (≈ 3.07 µg/mL)
- MIC (E. coli; strain Eco25922): 0.5 µM (≈ 0.192 µg/mL)
- MIC (E. coli; strain YDC107, UPMC): 1 µM (≈ 0.383 µg/mL)
- MIC (E. coli; strain YDC337, UPMC): 8 µM (≈ 3.07 µg/mL)
- MIC (E. coli; strain YDC748, UPMC): 8 µM (≈ 3.07 µg/mL)
- MIC (K. pneumoniae; strain KP43816): 1 µM (≈ 0.383 µg/mL)
- MIC (K. pneumoniae; strain KPA5 (colistin-resistant), UPMC): 2 µM (≈ 0.767 µg/mL)
- MIC (K. pneumoniae; strain KPB3, UPMC): 2 µM (≈ 0.767 µg/mL)
- MIC (K. pneumoniae; strain KPC3, UPMC): 1 µM (≈ 0.383 µg/mL)
Compound: C[C@@H](O)[C@H]1C(=O)N2C(C(=O)O)=C(S[C@@H]3CN[C@H](C(=O)N(C)C)C3)[C@H](C)[C@H]12 [Meropenem, reference compound]
- Antibiotic susceptibility profile (CDC AR isolates; Acinetobacter baumannii AB273, CDC AR isolate): R
- Antibiotic susceptibility profile (CDC AR isolates; Acinetobacter baumannii AB274, CDC AR isolate): R
- Antibiotic susceptibility profile (CDC AR isolates; Acinetobacter baumannii AB275, CDC AR isolate): R
- Antibiotic susceptibility profile (CDC AR isolates; Acinetobacter baumannii AB276, CDC AR isolate): R
- Antibiotic susceptibility profile (CDC AR isolates; [1]): S
- Antibiotic susceptibility profile (CDC AR isolates; [2]): R
- Antibiotic susceptibility profile (CDC AR isolates; [3]): S
- Antibiotic susceptibility profile (CDC AR isolates; [4]): I
- Antibiotic susceptibility profile (CDC AR isolates; [5]): S
- Antibiotic susceptibility profile (CDC AR isolates; [6]): I
- Antibiotic susceptibility profile (CDC AR isolates; [7]): R
- Antibiotic susceptibility profile (CDC AR isolates; [8]): R
- Antibiotic susceptibility profile (CDC AR isolates; [9]): I
- Antibiotic susceptibility profile (CDC AR isolates; [10]): R
- Antibiotic susceptibility profile (CDC AR isolates; [11]): R
- Antibiotic susceptibility profile (CDC AR isolates; [12]): R
- Antibiotic susceptibility profile (CDC AR isolates; Pseudomonas aeruginosa PA229, CDC AR isolate): R
- Antibiotic susceptibility profile (CDC AR isolates; Pseudomonas aeruginosa PA230, CDC AR isolate): R
- Antibiotic susceptibility profile (CDC AR isolates; Pseudomonas aeruginosa PA231, CDC AR isolate): R
- Antibiotic susceptibility profile (CDC AR isolates; Pseudomonas aeruginosa PA232, CDC AR isolate): I
- Antibiotic susceptibility profile (CDC AR isolates; Pseudomonas aeruginosa PA239, CDC AR isolate): R

- MIC (E. Faecium; strain EF23614, UPMC): > 16 µM
- MIC (E. Faecium; strain EF24670, UPMC): > 16 µM
- MIC (E. Faecium; strain EF26215, UPMC): 4 µM (≈ 1.82 µg/mL)
- MIC (E. Faecium; strain EF26692, UPMC): 4 µM (≈ 1.82 µg/mL)
- MIC (S. aureus; strain SA12212, UPMC): 16 µM (≈ 7.27 µg/mL)
- MIC (S. aureus; strain SA18710, UPMC): 16 µM (≈ 7.27 µg/mL)
- MIC (S. aureus; strain SA49775): 2 µM (≈ 0.909 µg/mL)
- MIC (S. aureus; strain SA-US300): 8 µM (≈ 3.64 µg/mL)
Compound: Cc1nnc(SCC2=C(C(=O)O)N3C(=O)[C@@H](NC(=O)Cn4cnnn4)[C@H]3SC2)s1 [Cefazolin, reference compound]
- Antibiotic susceptibility profile (CDC AR isolates; [1]): R
- Antibiotic susceptibility profile (CDC AR isolates; [2]): R
- Antibiotic susceptibility profile (CDC AR isolates; [3]): R
- Antibiotic susceptibility profile (CDC AR isolates; [4]): R
- Antibiotic susceptibility profile (CDC AR isolates; [5]): R
- Antibiotic susceptibility profile (CDC AR isolates; [6]): R
- Antibiotic susceptibility profile (CDC AR isolates; [7]): R
- Antibiotic susceptibility profile (CDC AR isolates; [8]): R
- Antibiotic susceptibility profile (CDC AR isolates; [9]): R
- Antibiotic susceptibility profile (CDC AR isolates; [10]): R
- Antibiotic susceptibility profile (CDC AR isolates; [11]): R
- Antibiotic susceptibility profile (CDC AR isolates; [12]): R
